Source: publication PMC5080441, “A direct-sensing galactose chemoreceptor recently evolved in invasive strains of Campylobacter jejuni” (Nature Communications, 2016)

Biological target: Tlp11 (CcrG, Campylobacter ChemoReceptor for Galactose)
Assay: SPR (Biacore); STD-NMR
Format: binding, Campylobacter jejuni

OC[C@H]1OC(O)[C@H](O)[C@@H](O)[C@H]1O (stereo partly shown) [galactose]
Kd: 17 µM
